pEC50, pIC50: −log10 of the molar value.
Assays:
[1] = target: T1, human PPARγ2 (Homo sapiens, UniProt P37231); assay: PPARγ activation activity, Gal4-PPARγ2 LBD luciferase transfection assay in COS7 cells; assay type: cell-based; conditions: Gal4-human PPARγ2 LBD chimera, luciferase reporter, 16 hours
T1 construct: the amino acids 182 to 505 of human PPARγ2; expressed in transfected cells; host or cells: COS7 cells (African green monkey kidney)
T1 sequence (P37231 182-505): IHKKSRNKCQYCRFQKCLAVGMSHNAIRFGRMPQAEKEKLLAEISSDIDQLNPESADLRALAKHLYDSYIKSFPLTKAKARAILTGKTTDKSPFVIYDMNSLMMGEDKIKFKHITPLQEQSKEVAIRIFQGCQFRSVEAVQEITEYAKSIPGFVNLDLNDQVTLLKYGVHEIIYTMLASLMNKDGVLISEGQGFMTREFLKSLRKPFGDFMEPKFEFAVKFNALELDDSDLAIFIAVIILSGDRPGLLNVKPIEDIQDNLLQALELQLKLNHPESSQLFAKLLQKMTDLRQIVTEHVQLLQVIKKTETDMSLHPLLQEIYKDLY
Method: PPARγ Activation Activity
The agonistic activity of the compounds of the invention on PPARγ was measured based on the transfection assay using COS7 cells (DS Pharma Biomedical Co., Ltd., Osaka, Japan), which are the cell line derived from the kidney of the African green monkey. COS7 cells were cultured under 5% CO2 concentration, and DMEM medium containing 10% fetal bovine serum, glutamic acid, and antibiotics was used as a medium.
As an expression vector, a chimera in which DNA binding domain of Gal4, which is a yeast transcription factor, and ligand binding domain of human PPARγ2 are fused, i.e., a fused product between the amino acids 1 to 147 of Gal4 transcription factor and the amino acids 182 to 505 of human PPARγ2, was used. Furthermore, as a reporter vector, a firefly luciferase containing five copies of Gal4 recognition sequence in the promoter region was used. Plasmid transfection to the cells was performed according to a method which uses jetPEI (trade name, manufactured by Funakoshi Co., Ltd., Tokyo, Japan). Furthermore, β-galactosidase expression vector was employed as an internal standard.
After the transfection of the cells, the medium was replaced with a DMEM medium (containing […]) added with the test compound, and the cells were further cultured for 16 hours. After that, the luciferase activity and β-galactosidase activity in the cell lysis solution were measured.
For the present test, dimethyl sulfoxide (DMSO) was used for dissolution and dilution of the test compounds, and during the cell treatment, the DMSO concentration in DMEM medium (containing 1% serum) was adjusted to 0.1%. The 50% effective concentration of the test compound (EC50, 50% effect concentration) was calculated by using SAS Preclinical Package Ver 5.0 (trade name, manufactured by SAS institute Japan Co., Tokyo, Japan), which is a statistical analysis program.

[2] = target: T2, angiotensin II type 1 receptor (Oryctolagus cuniculus, UniProt P34976); assay: Angiotensin II antagonistic activity in isolated rabbit blood vessels; conditions: angiotensin II (10 nM)-induced contraction of rabbit thoracic aorta ring; read-out: Angiotensin II 50% inhibition concentration
T2 construct: By using a specimen of isolated rabbit blood vessels; from tissue; host or cells: rabbit (New Zealand White) thoracic aorta ring
T2 sequence (P34976 1-359): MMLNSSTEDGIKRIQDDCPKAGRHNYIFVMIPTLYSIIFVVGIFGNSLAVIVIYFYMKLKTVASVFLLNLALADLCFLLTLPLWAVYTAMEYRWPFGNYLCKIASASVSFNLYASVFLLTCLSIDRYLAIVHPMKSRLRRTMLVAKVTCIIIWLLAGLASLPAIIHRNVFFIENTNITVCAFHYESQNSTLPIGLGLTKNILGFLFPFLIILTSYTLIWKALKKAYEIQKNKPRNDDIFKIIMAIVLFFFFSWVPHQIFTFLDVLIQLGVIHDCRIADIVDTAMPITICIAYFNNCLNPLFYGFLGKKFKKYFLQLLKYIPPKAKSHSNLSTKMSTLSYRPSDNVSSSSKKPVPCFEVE
Text: Angiotensin II Antagonistic Activity in Isolated Rabbit Blood Vessels
By using a specimen of isolated rabbit blood vessels, antagonistic activity of the compounds of the invention against angiotensin II type 1 receptor was estimated from a dose-response curve of angiotensin II-induced blood vessel contraction. Specifically, the specimen of thoracic aorta ring of a rabbit (New Zealand White: male, 2.4 to 3.0 kg) was suspended in a magnus bath filled with Krebs-Henseleite buffer (composition: 118 mM NaCl, 4.7 mM KCl, 2.55 mM CaCl2, 1.18 mM MgSO4, 1.18 mM KH2PO4, 24.88 mM NaHCO3, and 11.1 mM D-glucose), and angiotensin II (10 nM)-induced contraction was obtained in the presence of the compounds of each Example (1 nmol/L to 10 μmol/L). During the measurement, the inside temperature of the magnus bath was maintained at 37° C. and the bath was continuously ventilated with a sufficient amount of mixed gas (95% O2 and 5% CO2). The angiotensin II-induced contraction was converted into a relative value (%) that is based on the angiotensin II (10 nM)-induced contraction in the absence of the compounds of each Example. From the concentration-response curve obtained therefrom, 50% inhibition concentration (IC50 value) was calculated by using SAS Preclinical Package Ver 5.0 (trade name, manufactured by SAS institute Japan Co., Tokyo, Japan), which is a statistical analysis program. As described in the Table 1, it was confirmed that the compounds of the invention have a potent angiotensin II antagonistic activity.

Compound | pEC50 [1] | pIC50 [2]
CCCCc1nc(-c2ccc(F)cc2)c(CO)n1Cc1ccc(-c2ccccc2-c2noc(=O)[nH]2)cc1 [Example 1, 3-[4′-[{2-butyl-4-(4-fluorophenyl)-5-(hydroxymethyl)-1H-imidazol-1-yl}methyl]biphenyl-2-yl]-1,2,4-oxadiazol-5(4H)-one] | 5.82 | –
CCCCc1nc(-c2ccc(F)cc2)c(C(=O)OC)n1Cc1ccc(-c2ccccc2-c2noc(=O)[nH]2)cc1 [Example 2, methyl 2-butyl-4-(4-fluorophenyl)-1-[{2′-(5-oxo-4,5-dihydro-1,2,4-oxadiazol-3-yl)biphenyl-4-yl}methyl]-1H-imidazole-5-carboxylic acid] | – | 5.39
CCCCc1nc(-c2ncc(OCC)cn2)c(CO)n1Cc1ccc(-c2ccccc2-c2noc(=O)[nH]2)cc1 [Example 4, 3-[4′-[{2-butyl-4-(5-ethoxypyrimidin-2-yl)-5-(hydroxymethyl)-1H-imidazol-1-yl}methyl]-biphenyl-2-yl]-1,2,4-oxadiazol-5(4H)-one] | 5.83 | 5.98
CCCCc1nc(-c2ncc(OCC)cn2)c(CO)n1Cc1ccc(-c2ccccc2-c2nnn[nH]2)cc1 [Example 5, [1-[{2′-(1H-tetrazol-5-yl)biphenyl-4-yl}methyl]-2-butyl-4-(5-ethoxypyrimidin-2-yl)-1H-imidazol-5-yl]methanol] | – | 6.11
CCCCc1nc(-c2ncc(OCC)cn2)c(C(=O)OC)n1Cc1ccc(-c2ccccc2-c2noc(=O)[nH]2)cc1 [Example 6, methyl 2-butyl-4-(5-ethoxypyrimidin-2-yl)-1-[{2′-(5-oxo-4,5-dihydro-1,2,4-oxadiazol-3-yl)biphenyl-4-yl}methyl]-1H-imidazole-5-carboxylic acid] | 6.25 | 5.16
CCCCc1nc(-c2ncc(OCC)cn2)c(C(=O)OC)n1Cc1ccc(-c2ccccc2-c2nnn[nH]2)cc1 [Example 8, methyl 1-[{2′-(1H-tetrazol-5-yl)biphenyl-4-yl}methyl]-2-butyl-4-(5-ethoxypyrimidin-2-yl)-1H-imidazole-5-carboxylic acid] | 5.52 | 6.00
CCCCc1nc(-c2ccc(F)cc2)c(C(N)=O)n1Cc1ccc(-c2ccccc2-c2noc(=O)[nH]2)cc1 [Example 10, 2-butyl-4-(4-fluorophenyl)-1-({2′-(5-oxo-4,5-dihydro-1,2,4-oxadiazol-3-yl)biphenyl-4-yl}methyl)-1H-imidazole-5-carboxamide] | 5.46 | 6.10
CCCCc1nc(-c2ccc(F)cc2)c(C(=O)NCC)n1Cc1ccc(-c2ccccc2-c2noc(=O)[nH]2)cc1 [Example 11, 2-butyl-N-ethyl-4-(4-fluorophenyl)-1-[{2′-(5-oxo-4,5-dihydro-1,2,4-oxadiazol-3-yl)biphenyl-4-yl}methyl]-1H-imidazole-5-carboxamide] | 5.64 | 5.24
CCCCc1nc(-c2ccc(F)cc2)c(C(=O)N(CC)CC)n1Cc1ccc(-c2ccccc2-c2noc(=O)[nH]2)cc1 [Example 12] | 5.63 | –
CCCCc1nc(-c2ccc(F)cc2)c(C(N)=O)n1Cc1ccc(-c2ccccc2-c2nnn[nH]2)cc1 [Example 15, 1-[{2′-(1H-tetrazol-5-yl)biphenyl-4-yl}methyl]-2-butyl-4-(4-fluorophenyl)-1H-imidazole-5-carboxamide] | – | 6.34
CCCCc1nc(-c2ccc(F)cc2)c(C(=O)NCC)n1Cc1ccc(-c2ccccc2-c2nnn[nH]2)cc1 [Example 16, 1-[{2′-(1H-tetrazol-5-yl)biphenyl-4-yl}methyl]-2-butyl-N-ethyl-4-(4-fluorophenyl)-1H-imidazole-5-carboxamide] | – | 6.00
CCCCc1nc(-c2ccc(F)cc2)c(C(=O)N(CC)CC)n1Cc1ccc(-c2ccccc2-c2nnn[nH]2)cc1 [Example 17, 1-[{2′-(1H-tetrazol-5-yl)biphenyl-4-yl}methyl]-2-butyl-N,N-diethyl-4-(4-fluorophenyl)-1H-imidazole-5-carboxamide] | 5.48 | –
CCCCc1nc(-c2ccc(F)cc2)c(C(=O)N2CCOCC2)n1Cc1ccc(-c2ccccc2-c2nnn[nH]2)cc1 [Example 18, [1-[{2′-(1H-tetrazol-5-yl)biphenyl-4-yl}methyl]-2-butyl-4-(4-fluorophenyl)-1H-imidazol-5-yl](morpholino)methanone] | 5.36 | 5.80
CCCCc1nc(-c2ccc(F)cc2)c(C(=O)N2CCCC2)n1Cc1ccc(-c2ccccc2-c2nnn[nH]2)cc1 [Example 19, [1-[{2′-(1H-tetrazol-5-yl)biphenyl-4-yl}methyl]-2-butyl-4-(4-fluorophenyl)-1H-imidazol-5-yl](pyrrolidin-1-yl)methanone] | – | 5.16
CCCc1nc2c(C)cc(-c3nc4ccccc4n3C)cc2n1Cc1ccc(-c2ccccc2C(=O)O)cc1 [telmisartan, reference compound] | 5.30 to 6.00 | –
